Data set [1] has as its system CYP2C19 and 3A4. As to conditions: cited from earlier work.
Data set [2] has as its system AR; ERα. As to conditions: cited from earlier work; for mode of action on AR and ERα: responsive cancer cell culture models.
The subject of data set [3] is methicillin-resistant Staphylococcus aureus (MRSA) sepsis. On the set-up: method as in PMID 34681611. The settings on record: ip every other day 0.4, 2 and 10 mg/kg pre-treatment; cited from earlier work.
Data set [4] has as its system acute pain models. Further details: method as in PMID 12759141. The settings on record: cited from earlier work.
For data set [5], the target named is T1, DYRK1B (Homo sapiens, UniProt Q9Y463).
T1 construct: purchased Eurofins DiscoverX (KINOMEscan)
The experiment in a line: KINOMEscan competition binding. As to conditions: initial screening, DOH 50 µM; read-out: Substrate bound % Control. The protocol: (§1) Two distinct platforms were used for initial screening with 50 µM DOH vs. DMSO vehicle. The first was the Eurofins DiscoverX KINOMEscan® (Freemont, CA USA) profiling platform, which employed a proprietary active site-directed competition binding assay to quantitatively measure interactions between a test compound (i.e., DOH) and 468 human protein kinases and disease relevant mutant variants either directly (sterically) or indirectly (allosterically) to prevent a kinase binding to its immobilized substrate (ligand). The top 8 hits were subjected to secondary screening verification by DOH concentration-titration for dissociation constant (Kd). For ROCK1 and ROCK2, DA was chosen for Kd titration as well, because it is ~ 10 × higher than D in peripheral circulation due to its resistance to hydrolysis by carboxyesterase-2 (Fig. 1C).

In data set [6] the target is T2, PIK3CG (Homo sapiens, UniProt P48736).
T2 construct: purchased Eurofins DiscoverX (KINOMEscan)
The experiment in a line: KINOMEscan competition binding. As to conditions: initial screening, DOH 50 µM; read-out: Substrate bound % Control. The protocol:
as §1

In data set [7] the target is T3, RIOK1 (Homo sapiens, UniProt Q9BRS2).
T3 construct: purchased Eurofins DiscoverX (KINOMEscan)
In words: KINOMEscan competition binding. The settings on record: initial screening, DOH 50 µM; read-out: Substrate bound % Control. As for the experimental part: as §1

Data set [8] has as its target T4, PIP5K1A (Homo sapiens, UniProt Q99755).
T4 construct: purchased Eurofins DiscoverX (KINOMEscan)
The experiment in a line: KINOMEscan competition binding. As to conditions: initial screening, DOH 50 µM; read-out: Substrate bound % Control. As for the experimental part:
as §1

Data set [9] has as its target T5, YSK4 (MAP3K19) (Homo sapiens, UniProt Q56UN5).
T5 construct: purchased Eurofins DiscoverX (KINOMEscan)
The experiment in a line: KINOMEscan competition binding. The settings on record: initial screening, DOH 50 µM; read-out: Substrate bound % Control. As for the experimental part:
as §1

The target in data set [10] is T6, ERK4 (MAPK4) (Homo sapiens, UniProt P31152).
T6 construct: purchased Eurofins DiscoverX (KINOMEscan)
T6 sequence (P31152 whole entry): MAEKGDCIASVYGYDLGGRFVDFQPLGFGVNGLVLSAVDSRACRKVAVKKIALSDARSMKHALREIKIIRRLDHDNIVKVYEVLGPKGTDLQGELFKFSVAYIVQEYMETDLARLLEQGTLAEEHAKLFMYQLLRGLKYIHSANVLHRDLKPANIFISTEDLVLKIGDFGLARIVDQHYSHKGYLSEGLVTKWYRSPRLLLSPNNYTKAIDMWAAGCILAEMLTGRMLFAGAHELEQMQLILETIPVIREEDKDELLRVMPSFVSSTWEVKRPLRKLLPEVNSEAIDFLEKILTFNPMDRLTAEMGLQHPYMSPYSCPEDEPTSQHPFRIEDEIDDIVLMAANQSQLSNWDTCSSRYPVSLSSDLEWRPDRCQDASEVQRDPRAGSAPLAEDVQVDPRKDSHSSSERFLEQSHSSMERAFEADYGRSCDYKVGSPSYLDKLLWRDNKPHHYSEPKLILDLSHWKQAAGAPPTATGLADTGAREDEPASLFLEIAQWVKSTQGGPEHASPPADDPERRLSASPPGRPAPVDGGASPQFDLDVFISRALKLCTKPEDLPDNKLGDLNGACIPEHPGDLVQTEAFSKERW
In words: KINOMEscan competition binding. The protocol:
as §1

The target in data set [11] is T7, BIKE (BMP2K) (Homo sapiens, UniProt Q9NSY1).
T7 construct: purchased Eurofins DiscoverX (KINOMEscan)
In words: KINOMEscan competition binding. As to conditions: initial screening, DOH 50 µM; read-out: Substrate bound % Control. The protocol: as §1

The target of data set [12] is T8, CDC2L1 (CDK11B) (Homo sapiens, UniProt P21127).
T8 construct: purchased Eurofins DiscoverX (KINOMEscan)
T8 sequence (P21127 whole entry): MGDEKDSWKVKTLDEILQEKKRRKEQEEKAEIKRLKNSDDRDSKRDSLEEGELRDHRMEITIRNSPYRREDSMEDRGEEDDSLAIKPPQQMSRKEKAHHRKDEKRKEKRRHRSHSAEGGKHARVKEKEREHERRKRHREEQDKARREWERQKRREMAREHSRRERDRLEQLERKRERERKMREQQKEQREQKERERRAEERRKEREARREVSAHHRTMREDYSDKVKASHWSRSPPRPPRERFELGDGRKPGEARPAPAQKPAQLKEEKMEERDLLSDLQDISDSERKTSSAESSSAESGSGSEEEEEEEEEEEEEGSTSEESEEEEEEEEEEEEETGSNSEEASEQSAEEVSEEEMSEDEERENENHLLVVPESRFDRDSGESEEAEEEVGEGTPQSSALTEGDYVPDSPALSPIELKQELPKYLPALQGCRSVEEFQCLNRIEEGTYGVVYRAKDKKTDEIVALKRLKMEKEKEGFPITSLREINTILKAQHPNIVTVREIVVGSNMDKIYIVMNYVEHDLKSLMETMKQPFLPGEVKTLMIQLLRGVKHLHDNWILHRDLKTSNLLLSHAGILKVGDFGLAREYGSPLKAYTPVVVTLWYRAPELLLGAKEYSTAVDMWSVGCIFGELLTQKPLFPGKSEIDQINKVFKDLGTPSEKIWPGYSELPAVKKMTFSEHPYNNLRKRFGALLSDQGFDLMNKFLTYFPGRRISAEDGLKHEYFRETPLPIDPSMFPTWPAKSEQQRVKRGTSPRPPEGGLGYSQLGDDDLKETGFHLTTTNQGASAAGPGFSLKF
The experiment in a line: KINOMEscan competition binding. The protocol: as §1

Data set [13] deals with T9, PIK3C2G (Homo sapiens, UniProt O75747).
T9 construct: purchased Eurofins DiscoverX (KINOMEscan)
In words: KINOMEscan competition binding. The settings on record: initial screening, DOH 50 µM; read-out: Substrate bound % Control. As for the experimental part: as §1

The target in data set [14] is T10, LKB1 (STK11) (Homo sapiens, UniProt Q15831).
T10 construct: purchased Eurofins DiscoverX (KINOMEscan)
T10 sequence (Q15831 whole entry): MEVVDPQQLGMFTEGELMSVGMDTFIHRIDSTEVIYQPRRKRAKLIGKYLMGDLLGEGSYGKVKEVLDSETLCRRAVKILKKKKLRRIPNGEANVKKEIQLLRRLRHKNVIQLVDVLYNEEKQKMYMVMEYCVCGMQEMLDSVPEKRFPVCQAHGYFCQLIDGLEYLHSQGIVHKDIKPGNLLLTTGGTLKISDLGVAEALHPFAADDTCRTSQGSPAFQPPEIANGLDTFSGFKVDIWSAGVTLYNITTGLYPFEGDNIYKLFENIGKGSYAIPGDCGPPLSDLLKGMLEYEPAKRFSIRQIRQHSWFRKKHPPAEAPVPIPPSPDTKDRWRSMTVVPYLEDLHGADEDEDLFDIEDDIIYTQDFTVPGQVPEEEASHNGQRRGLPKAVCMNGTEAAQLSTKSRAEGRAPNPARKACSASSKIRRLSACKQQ
In words: KINOMEscan competition binding. As for the experimental part:
as §1

Data set [15] concerns the target T11, JAK2(JH1domain-catalytic) (Homo sapiens, UniProt O60674).
T11 construct: JAK2(JH1domain-catalytic); purchased Eurofins DiscoverX (KINOMEscan)
The experiment in a line: KINOMEscan competition binding. As to conditions: initial screening, DOH 50 µM; read-out: Substrate bound % Control. As for the experimental part: as §1

Data set [16] concerns the target T12, SRPK3 (Homo sapiens, UniProt Q9UPE1).
T12 construct: purchased Eurofins DiscoverX (KINOMEscan)
In words: KINOMEscan competition binding. The settings on record: initial screening, DOH 50 µM; read-out: Substrate bound % Control. The protocol:
as §1

In data set [17] the target is T13, GRK4 (Homo sapiens, UniProt P32298).
T13 construct: purchased Eurofins DiscoverX (KINOMEscan)
In words: KINOMEscan competition binding. As to conditions: initial screening, DOH 50 µM; read-out: Substrate bound % Control. As for the experimental part: as §1

Data set [18] has as its target T14, JAK3(JH1domain-catalytic) (Homo sapiens, UniProt P52333).
T14 construct: JAK3(JH1domain-catalytic); purchased Eurofins DiscoverX (KINOMEscan)
The experiment in a line: KINOMEscan competition binding. As to conditions: initial screening, DOH 50 µM; read-out: Substrate bound % Control. As for the experimental part: as §1

On the set-up of data set [19]: method as in PMID 27080944, PMID 23364885, PMID 29121805. As to conditions: oral gavage dosing of AGN or D/DA; cited from earlier work.
In data set [20] the target is CDK9 (Homo sapiens, UniProt P50750). In words: Reaction Biology kinase activity inhibition. It is filed as biochemical. On the set-up: purchased Reaction Biology (Malvern, PA). As to conditions: activity screening, DOH at 50 μM. An excerpt:
(§2) The second screening was the Reaction Biology® (Malvern, PA) kinase activity inhibition tests, which screened for more than 600 protein kinases and lipid kinases, using miniaturized radioisotope-based assay platform with γ-^33P-ATP, followed by confirmation with IC50 kinase profiling service with 5 concentrations of test compound (i.e., DOH and DA) with curve fitting.

Data set [21] has as its target T15, CDK7/cyclin H (Homo sapiens, UniProt P50613).
T15 construct: purchased Reaction Biology
In words: Reaction Biology kinase activity inhibition. It is filed as biochemical. The settings on record: initial screening.
From the text: as §2

In data set [22] the target is T16, CAMK1d (Homo sapiens, UniProt Q8IU85).
T16 construct: purchased Reaction Biology
T16 sequence (Q8IU85 whole entry): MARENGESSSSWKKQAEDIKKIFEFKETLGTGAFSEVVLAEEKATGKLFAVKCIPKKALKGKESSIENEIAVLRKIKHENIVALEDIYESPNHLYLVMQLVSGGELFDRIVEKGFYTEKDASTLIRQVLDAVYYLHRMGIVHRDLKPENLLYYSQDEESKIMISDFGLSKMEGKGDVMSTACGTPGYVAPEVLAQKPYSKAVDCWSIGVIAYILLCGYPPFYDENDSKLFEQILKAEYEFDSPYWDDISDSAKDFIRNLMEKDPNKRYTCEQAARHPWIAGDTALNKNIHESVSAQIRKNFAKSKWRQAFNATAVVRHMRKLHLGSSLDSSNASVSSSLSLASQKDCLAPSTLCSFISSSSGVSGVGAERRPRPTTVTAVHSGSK
The experiment in a line: Reaction Biology kinase activity inhibition. Format: biochemical. The settings on record: initial screening.
From the text: as §2

Data set [23] has as its system PKN1-TECR (Tex1Pex10). In words: Reaction Biology kinase activity inhibition. Format: biochemical. The settings on record: initial screening.
From the text: as §2

Data set [24] concerns the target T17, CLK4 (Homo sapiens, UniProt Q9HAZ1).
T17 construct: purchased Reaction Biology
In words: Reaction Biology kinase activity inhibition. It is filed as biochemical. As to conditions: initial screening.
From the text: as §2

Data set [25] deals with T18, LKB1 (Homo sapiens, UniProt Q15831).
T18 construct: purchased Reaction Biology (Malvern, PA)
In words: Reaction Biology kinase activity inhibition. It is filed as biochemical. As to conditions: activity screening, DOH at 50 μM.
From the text: as §2

The target in data set [26] is T19, Aurora B (Homo sapiens, UniProt Q96GD4).
T19 construct: purchased Reaction Biology
T19 sequence (Q96GD4 whole entry): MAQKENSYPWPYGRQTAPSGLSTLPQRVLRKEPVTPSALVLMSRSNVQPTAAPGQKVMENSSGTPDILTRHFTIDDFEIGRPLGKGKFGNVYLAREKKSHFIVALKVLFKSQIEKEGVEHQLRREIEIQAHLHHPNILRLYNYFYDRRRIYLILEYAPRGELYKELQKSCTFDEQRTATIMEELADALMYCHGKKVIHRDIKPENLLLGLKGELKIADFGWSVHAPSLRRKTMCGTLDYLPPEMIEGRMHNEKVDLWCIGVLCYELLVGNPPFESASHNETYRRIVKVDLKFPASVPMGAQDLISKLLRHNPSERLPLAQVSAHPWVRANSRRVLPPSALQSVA
The experiment in a line: Reaction Biology kinase activity inhibition. It is filed as biochemical. The settings on record: initial screening.
From the text: as §2

In data set [27] the target is T20, FGR (Homo sapiens, UniProt P09769).
T20 construct: purchased Reaction Biology
T20 sequence (P09769 whole entry): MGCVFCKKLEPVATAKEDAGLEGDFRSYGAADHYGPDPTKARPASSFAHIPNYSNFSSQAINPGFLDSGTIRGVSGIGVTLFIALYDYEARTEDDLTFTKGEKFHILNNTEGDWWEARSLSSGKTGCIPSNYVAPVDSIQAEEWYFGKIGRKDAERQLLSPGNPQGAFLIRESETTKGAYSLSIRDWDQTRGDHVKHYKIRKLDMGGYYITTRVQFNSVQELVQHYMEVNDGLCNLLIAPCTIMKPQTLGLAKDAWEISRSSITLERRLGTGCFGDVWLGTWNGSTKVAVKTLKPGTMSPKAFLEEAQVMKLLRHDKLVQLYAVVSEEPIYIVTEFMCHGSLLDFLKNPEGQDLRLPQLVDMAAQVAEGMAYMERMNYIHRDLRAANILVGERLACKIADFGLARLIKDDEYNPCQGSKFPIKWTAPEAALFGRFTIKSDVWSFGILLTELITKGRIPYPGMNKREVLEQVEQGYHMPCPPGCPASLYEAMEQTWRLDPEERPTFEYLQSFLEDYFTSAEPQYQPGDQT
The experiment in a line: Reaction Biology kinase activity inhibition. Format: biochemical. The settings on record: initial screening.
From the text: as §2

Data set [28] relates to BOCCA and MCAO ischemic damage. On the set-up: method as in PMID 19801740. The settings on record: 20 mg/kg, pre or post-treatment; cited from earlier work.
[29] abbreviates: read-out: Substrate bound % Control.
[30] abbreviates: validation Kd titration, 0.003 to 50 µM.
The mark [31] stands for this setting: DOH (50 µM), Data 1 and Data 2, read-out: % Enzyme Activity (relative to DMSO controls).

We go through two molecules from PMC11785709, “Angelica gigas Nakai (Korean Dang-gui) Root Alcoholic Extracts in Health Promotion and Disease Therapy – active Phytochemicals and In Vivo Molecular Targets” (Pharmaceutical Research, 2025).

Several values for one entry are separate records, joined by “and”; a condition that tells them apart may be missing. Identical values can stand only once.

T17 sequence (Q9HAZ1 whole entry): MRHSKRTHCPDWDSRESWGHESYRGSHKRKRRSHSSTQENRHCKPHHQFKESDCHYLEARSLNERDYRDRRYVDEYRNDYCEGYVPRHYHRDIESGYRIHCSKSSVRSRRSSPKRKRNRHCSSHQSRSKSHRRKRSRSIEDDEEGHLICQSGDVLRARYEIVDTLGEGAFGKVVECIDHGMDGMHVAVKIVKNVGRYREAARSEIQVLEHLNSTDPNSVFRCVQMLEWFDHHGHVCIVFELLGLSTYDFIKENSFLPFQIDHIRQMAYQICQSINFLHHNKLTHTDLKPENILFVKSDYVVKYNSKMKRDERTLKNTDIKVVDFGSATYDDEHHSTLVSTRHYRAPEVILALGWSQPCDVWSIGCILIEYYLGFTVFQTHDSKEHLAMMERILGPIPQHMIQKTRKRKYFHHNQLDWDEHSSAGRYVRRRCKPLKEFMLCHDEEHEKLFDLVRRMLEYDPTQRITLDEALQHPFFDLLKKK
T15 sequence (P50613 whole entry): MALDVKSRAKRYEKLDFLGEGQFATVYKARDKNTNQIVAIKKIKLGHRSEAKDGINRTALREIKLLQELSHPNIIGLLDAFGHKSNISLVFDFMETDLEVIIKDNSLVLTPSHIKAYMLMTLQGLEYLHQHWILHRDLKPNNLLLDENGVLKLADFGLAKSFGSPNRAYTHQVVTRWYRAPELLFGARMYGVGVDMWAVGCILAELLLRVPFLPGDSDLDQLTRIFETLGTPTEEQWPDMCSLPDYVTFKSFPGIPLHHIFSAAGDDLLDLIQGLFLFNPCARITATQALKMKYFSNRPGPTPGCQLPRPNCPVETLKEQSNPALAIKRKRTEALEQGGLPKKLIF
T15 sequence (P51946 whole entry partner): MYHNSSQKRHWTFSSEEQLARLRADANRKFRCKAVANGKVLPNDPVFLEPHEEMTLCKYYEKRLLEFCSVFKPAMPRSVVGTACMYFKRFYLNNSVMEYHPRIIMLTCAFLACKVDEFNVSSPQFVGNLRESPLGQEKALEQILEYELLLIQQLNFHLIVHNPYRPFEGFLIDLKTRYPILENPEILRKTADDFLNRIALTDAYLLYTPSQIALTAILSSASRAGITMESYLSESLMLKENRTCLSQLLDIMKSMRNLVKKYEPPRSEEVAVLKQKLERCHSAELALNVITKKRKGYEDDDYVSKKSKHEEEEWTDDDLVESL
T15 sequence (P51948 whole entry partner): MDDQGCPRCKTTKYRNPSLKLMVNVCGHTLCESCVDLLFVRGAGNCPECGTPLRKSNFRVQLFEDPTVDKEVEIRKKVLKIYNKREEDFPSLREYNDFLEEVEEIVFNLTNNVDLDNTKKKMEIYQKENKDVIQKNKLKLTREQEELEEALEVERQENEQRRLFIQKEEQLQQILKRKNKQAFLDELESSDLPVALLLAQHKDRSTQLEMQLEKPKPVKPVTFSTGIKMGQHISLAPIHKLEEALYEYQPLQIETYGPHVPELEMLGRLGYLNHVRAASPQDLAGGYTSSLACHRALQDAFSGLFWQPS
T14 sequence (P52333 822-1111 limits assumed): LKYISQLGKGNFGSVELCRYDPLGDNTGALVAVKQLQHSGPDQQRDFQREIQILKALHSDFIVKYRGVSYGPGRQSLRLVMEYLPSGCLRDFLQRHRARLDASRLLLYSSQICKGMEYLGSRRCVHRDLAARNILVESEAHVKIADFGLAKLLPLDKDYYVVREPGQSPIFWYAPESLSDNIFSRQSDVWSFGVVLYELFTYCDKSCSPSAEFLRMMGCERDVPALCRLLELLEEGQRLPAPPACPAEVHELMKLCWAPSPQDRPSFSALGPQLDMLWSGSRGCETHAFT

`C/C=C(/C)C(=O)O[C@H]1Cc2cc3ccc(=O)oc3cc2OC1(C)C` [DA, decursinol angelate]: the “Cyp isoforms for metabolism to DOH” value in [1] is “major human isoforms”. Also, the IC50 in data set [2] (antagonist/degrader) was about 5 µM. For the same molecule, in data set [2], the “mode of action on AR and ERα” value is “antagonists/degraders”. In addition, the “mouse mortality and bacteremia” value in data set [3] is recorded as “dose-dependent decrease of mouse mortality”.

Regarding `CC1(C)Oc2cc3oc(=O)ccc3cc2C[C@@H]1O` [DOH, decursinol], the “anti-nociceptive ED50” value in [4] (gavaged DOH 5 to 200 mg/kg) is given as ~ 50 mg/kg. The “peak time of anti-nociceptive efficacy” value in [4] (post dose) is recorded as 30 min. For the same molecule, the remaining binding at 50 µM was 28% in data set [5]; 46% in data set [6]; 50% in [7]; 47% in data set [8]; 34% in data set [9]; 3.3% in data set [10] (setting [29]). Besides, the remaining binding at 50 µM in [11] came to 45%; in data set [12] (setting [29]), 19%; in [13], 32%; in data set [14] (setting [29]), 7.6%; in data set [15], 49%; in data set [16] it was 45%. Besides, the results for the remaining binding at 50 µM in data set [17] and in [18] were 47% and 45%, respectively. In addition, the equilibrium dissociation constant (Kd) in data set [10] (setting [30]), in data set [12] (setting [30]) and in data set [14] (setting [30]) was over 50 µM in each case. The EC50 in data set [2] (read-out: AR, ERα agonist EC50) was about 10 µM. Besides, the “mode of action on AR and ERα” value in [2] was “weak partial agonist activity”. Besides, in data set [19], the “DOH level achievable in the blood” value was “double digit micromolar”. Besides, the “inhibition of kinase activity” value in data set [20] and in data set [25] was “no inhibition” in each case. Further, the inhibition at 50 µM in [21] (DOH 50 µM) is 25.7%; in [22] (DOH 50 µM), 27.1%; in [24] (DOH 50 µM) it was 25.7%; in data set [26] (DOH 50 µM) it was 36.2%; in data set [27] (DOH 50 µM), 34.8%. In addition, the “% Enzyme Activity (relative to DMSO controls)” value in [21] (DOH (50 µM), Data 1 and Data 2) was 73.9%; in data set [22] (DOH (50 µM), Data 1 and Data 2) it was 70.6%; in data set [23] (DOH (50 µM), Data 1 and Data 2), 72.6% and 72.4%; in data set [24] (DOH (50 µM), Data 1 and Data 2), 74.0%; in data set [26] (DOH (50 µM), Data 1 and Data 2), 63.7%; in data set [27] (DOH (50 µM), Data 1 and Data 2) it was 64.8%. The remaining activity at 50 µM is 74.8% in [21] (setting [31]); 75.3% in data set [22] (setting [31]); 74.8% in [24] (setting [31]); 64% in data set [26] (setting [31]); 65.6% in data set [27] (setting [31]). Further, in data set [23] (DOH 50 µM), the “DOH % Inhibition” value was determined as 27.6%. For the same molecule, the “protection against ischemia stroke models” value in data set [28] was “failed to protect”.

For orientation: IC50 means the concentration that gives 50% inhibition. As usually defined, the Kd is the free concentration of one partner at which half of the binding sites on the other are occupied at equilibrium, for simple one-to-one binding. Low values mean tighter binding, high ones weaker binding. Usually inhibition stands for the share of the control response that was lost under treatment. The low end stands for little suppression, the high end for strong suppression.
